Reference: US6495587B1, “Tricyclic indole-2-carboxylic acid compound used as NMDA receptor antagonist” (Sumitomo Pharmaceuticals Company, Limited, priority 1999, dated 2002)
Counter-ions that a name gives are not always drawn. Like-named read-outs stand apart in the source and are kept apart here.

Assays:
[1] = tested on: tonic convulsions after i.c.v. administration of NMDA; test: Anti-convulsion test (NMDA i.c.v.); format: in vivo, mice; conditions: 20 min before NMDA 5 nmol i.c.v.
Method: Twenty minutes after intravenous administration of the test compound (1 to 10 mg/kg) into each of ten mice tested, NMDA (5 nmol) was administered intracerebroventricularly (i.c.v.). […] The hydrochloride [C-4] at 10 mg/kg i.v. protected 90% of mice from tonic convulsions.

[2] = Characteristic moisture absorption (Vapor Sorption Analyzer); format: physicochemical; conditions: 25° C.; for Water taken up by the dehydrated sample: 0% R.H. to 95% R.H. and back to 10% R.H.
Method: Characteristic moisture absorption of the crystalline hydrochloride monohydrate [C-5] and the hydrochloride [C-4] which is in the form of an amorphous powder were measured with a Vapor Sorption Analyzer MB300G-3 (VTI Corporation).
In advance of measurement, the weighed samples put in the Analyzer were dehydrated at 60° C. under reduced pressure.

[3] = molecular target: T1, glycine binding site of the NMDA receptor (rat brain synaptic membrane) (Rattus norvegicus, UniProt P35439); test: [3H]-DCKA binding test; conditions: 10 nM [3H]-DCKA, 2° C., 10 min, pH 7.4; read-out: IC50, inhibition of [3H]-DCKA binding
T1 construct: A crude rat brain synaptic membrane preparation; from tissue; host or cells: rat brain synaptic membranes (Triton X-100 treated)
Method: A crude rat brain synaptic membrane preparation was washed three time with 50 mM Tris acetate buffer (pH 7.4) and centrifuged at 50,000×g for 30 min. The pellets obtained were suspended in 0.32M sucrose solution and stored at −80° C. For binding studies, the frozen suspension was thawed, treated with 0.08-0.10% triton X-100 at 2° C. for 10 min. The membrane suspension was washed twice and centrifuged at 50,000×g for 30 min. The synaptic membrane thus prepared (ca. 100 μg of protein) was incubated with 10 nM [^3H]-5,7-dichlorokynurenic acid (DCKA) and the test compound (10 to 0.1 ng/mL) at 2° C. for 10 min in 50 mM Tris acetate buffer (pH 7.4). The incubation was terminated by suction filtration using Whatman GF/B glass filter. The radioactivity bound to the membrane on the filter was measured by scintillation counting. Non-specific binding was calculated by the radioactivity measured under the incubations in the presence cf 0.1 mM glycine.

[4] = format: physicochemical; conditions: for HPLC integrated intensity (%) under 75% R.H. / HPLC integrated intensity (%) in a sealed tube: 60° C.
Method: The hydrochloride monohydrate [C-5] was kept at a temperature of 60° C., in a sealed tube or under 75% R.H.(relative humidity) for 4 weeks. Thereafter, the remaining amount of the compound was assayed with high performance liquid chromatography (HPLC).

Structure (SMILES) | Mice protected from tonic convulsions ([1]; 10 mg/kg i.v., ten mice) | ED50 ([1]; Mus musculus, iv, mice, read-out: ED50, protection from tonic convulsions) | Water taken up by the dehydrated sample [2] | IC50 [3] | Water taken up, theoretical weight change for one molecular equivalent ([2]; moist atmosphere) | Increase of impurities or degradation products in HPLC charts [4] | HPLC integrated intensity (%) under 75% R.H. ([4]; 2 weeks) | HPLC integrated intensity (%) under 75% R.H. ([4]; 4 weeks) | HPLC integrated intensity (%) under 75% R.H. ([4]; Initial) | HPLC integrated intensity (%) in a sealed tube ([4]; 2 weeks) | HPLC integrated intensity (%) in a sealed tube ([4]; 4 weeks) | HPLC integrated intensity (%) in a sealed tube ([4]; Initial)
C[C@@H](Oc1cc(CN)ccc1NC(=O)C[C@@H]1CCc2cc(Cl)cc3[nH]c(C(=O)O)c1c23)C(=O)O [C-4, (3S)-7-Chloro-3-(2-((1R)-1-carboxyethoxy)-4-aminomethylphenyl)aminocarbonylmethyl-1,3,4,5-tetrahydrobenz[c.d]indole-2-carboxylic Acid Hydrochloride] | 90% | 2.3 mg/kg | more than 2.5 molecular equivalents of water | 1.4 nM | – | – | – | – | – | – | – | –
C[C@@H](Oc1cc(CN)ccc1NC(=O)C[C@@H]1CCc2cc(Cl)cc3[nH]c(C(=O)O)c1c23)C(=O)O.Cl.O [C-5] | – | – | one | – | 3.45 wt % | did not show any increase of impurities or degradation products | 99.2% | 99.5% | 99.3% | 99.3% | 99.6% | 99.3%
C[C@H](Oc1cc(CN)ccc1NC(=O)C[C@@H]1CCc2cc(Cl)cc3[nH]c(C(=O)O)c1c23)C(=O)O [D-2, (3S)-7-Chloro-3-(2-((1S)-1-carboxyethoxy)-4-aminomethylphenyl)aminocarbonylmethyl-1,3,4,5-tetrahydrobenz[c.d]indole-2-carboxylic Acid Hydrochloride, reference compound] | – | – | – | 16 nM | – | – | – | – | – | – | – | –
